Laboratory results from paper PMC8279484 (Journal of Medicinal Chemistry, 2021).

Legend:
THP-1 LUCIA monocytes [1] = test: In vitro safety study: Safety index (Si), activity versus toxicity; assay type: cell-based, human; details: for IC50: Homo sapiens, THP-1, highest IC50 among the LPS-challenged assays (NF-κB activity, cytokine, LDH release), read-out: Extrinsic Activity hIC50; for Safety Index TC50/IC50: ratio of intrinsic TC50 to extrinsic hIC50
Procedure: A postanalysis “safety study” was conducted on all QNX-sLXms. For each tested compound, we calculated an in vitro “Safety index” (Si) by relating its “anti-inflammatory half-maximal activity” (the highest dose among the IC50 of the extrinsic LPS-challenged phenotype: NF-κB activity, proinflammatory cytokine, and LDH release) to its intrinsic “toxicity” (expressed as the relative half-maximal LDH-associated cytotoxicity). The generated Si is potentially predictive of a translational “therapeutic” range: the higher the Si, the safer the molecule is. As summarized in Table S4, Si values from all tested compounds fall in a broad range (7–50).

THP-1 LUCIA monocytes [2] = test: Intrinsic cytotoxicity: LDH release without LPS; assay type: cell-based, human; details: for Intrinsic Toxicity TC50 (pM): half-maximal intrinsic LDH-associated toxic activity, no LPS
Procedure: We investigated the potential cytotoxicity of all candidate sLXms by assaying LDH release.[50] The response to LPS was arbitrarily set to 100%, and values were expressed relative to this. As previously reported by others, LPS provokes LDH release.[51] […] Ultimately, untreated cells defined the spontaneous cell release thresholds.
Lactate dehydrogenase (LDH) was assayed in cell supernatants to investigate possible cytotoxicity of the lead compound. LDH is rapidly released into the culture medium after disruption of the plasma membrane.[67],[69] After 24 h of exposure to sLXms, vehicle, or controls, followed by LPS stimulation, as described above, THP-1-Lucia NF-κB-cell supernatants were collected and LDH was assayed. Cytotoxicity was evaluated relative to vehicle controls. Maximum releasable LDH was determined in cells lysed with 2% Triton-X-100 (Sigma-Aldrich, Ireland). LDH levels were assessed by reading the absorbance at 490 nm (protein) and 690 nm (background noise), using a spectrophotometer (SPECTRAMAX M2, Molecular Devices (U.K.) Limited).

NF-κB = test: LPS-induced NF-κB-driven luciferase gene reporter assay in THP-1 Lucia monocytes; assay type: cell-based, human; details: for Rel. Slope: HS relative to LXA4 (1); for IC50: Homo sapiens, THP-1, read-out: Potency IC50; for Potency Rel. Pot.: IC50 relative to LXA4 (1); for Efficacy Rel. Eff.: Imax relative to LXA4 (1); for reduction of LPS-induced NF-κB-driven luciferase activity: approximate extent; for (Single component) Rel. Score: Rel. Pot. / (Single component) Rel. Score: Rel. Sl.: score relative to LXA4 (1); for (Aggregate) Rel. PD Score: sum of efficacy, potency, slope scores relative to LXA4 (1)
Procedure: Mycoplasma-free THP-1-Lucia NF-κB cells were grown in an RPMI 1640 (Gibco) medium containing 2 mM L-glutamine, 1.50 g/L sodium bicarbonate, 4.50 g/L glucose, 10 mM N-(2-hydroxyethyl)piperazine-N′-ethanesulfonic acid (HEPES), and 1 mM sodium pyruvate. Then, 10% heat-inactivated fetal bovine serum (FBS) (30 min at 56 °C), 100 μg/mL Normocin, and Pen-Strep (50 U/mL to 50 μg/mL) were also added to the growth media. As THP-1-Lucia cells were resistant to Zeocin, the latter was used as a selective antibiotic (a high dose, i.e., 100 μg/mL, was alternated every 2 weeks with a low dose, i.e., 10 μg/mL).
LXA41 and all of the tested sLXms were dissolved in ethanol and further diluted in a culture medium (final ethanol concentration 0.1%; equivalent concentrations were used as the vehicle control). Prior to in vitro experiments, THP-1-Lucia NF-κB cells were harvested and plated at 1 × 10^5 cells/well on 96-well plates and left to settle in the incubator at 37 °C, 95% humidity, and 5% CO2, in 0.1% FBS-containing media, pretreated for 30 min with increasing doses of LXA41, sLXms (from 10^–12 to 10^–6 M), or appropriate controls, followed by stimulation with 50 ng/mL LPS for 24 h.
NFκB activity was monitored in the human THP-1 monocytic leukemia cell line containing a stably integrated NF-κB-inducible Lucia reporter construct (as previously reported).[21] When stimulated with LPS, the transcription factor NF-κB is activated, upregulating the synthesis of proinflammatory mediators, thus bringing about an inflammatory response. In these cells, NF-κB activation is linked to a […] luciferase gene and can be measured using luminescence.
Heat-killed listeria monocytogenes (HKLM) (10^8/mL) was used as a positive control.[28] The levels of NF-κB-induced Luciferase were then measured in a culture supernatant using QUANTI-Luc as the detection reagent, and measurements were taken on a bioluminescence reader.
After 24 h, the levels of NF-κB-induced Lucia were assayed in a cell culture supernatant using QUANTI-Luc, as a detection reagent, on a bioluminescence reader (Synergy HT, BioTek Instruments, Inc. Vermont). Aliquots of the supernatant were retained for subsequent cytokine and LDH assays. Cellular proteins were extracted with a radioimmunoprecipitation assay (RIPA) buffer (Thermo Fisher, Ireland), supplemented with protease inhibitors (Sigma-Aldrich, Ireland). Lysates were clarified by centrifugation (3200g, 10’, 4 °C) to remove cell debris, and the cell protein level was quantified by performing a bicinchoninic acid (BCA) assay (as per the manufacturer’s instructions) reading the protein absorbance at 570 nm, using a spectrophotometer (SPECTRAMAX M2, Molecular Devices (U.K.) Limited). A “relative luminescence unit” (RLU) was obtained using the average value of the lum/abs ratio of two replicates.
The “coding” of the heat-map indicates the arbitrary criteria to assign points to each single PD component (efficacy = Imax or Emax; potency = IC50 or EC50; slope = HS) to generate a final (aggregate) relative PD score. […] If a single PD component was equal to the reference level (x = 1), then the single-component relative score was arbitrarily set to 0 (gray). If a single PD component was smaller than the reference level (x < 1), then the single-component relative score was arbitrarily set to −1 (light red) or −2 (dark red). If the curve of a single PD component was best fitting to a flat line (x = 0), then the single-component relative score was arbitrarily set to −4 (purple) (Table S1).

C57bl/6 mice = test: Murine carrageenan-induced paw edema; assay type: in vivo, mouse; details: for % relative to carageenan-induced level: Veh = 100; for % relative to carageenan-induced level / % reduction relative to carageenan-induced level: (R)-6, (R)-17 2 μg/kg, Naproxen 50 mg/kg p.o.; for Paw swelling Index: Mean: n = 3
Procedure: Then, 50 μL of 1% carrageenan was injected with an equivalent volume of saline injected into the contralateral paw. Inflammation was presented as the difference in paw thickness over time using gauge (POCO 2T; Kroeplin, GmbH, Surrey, U.K.). Data are presented as mean ± SEM, n = 3 mice/treatment group.

THP-1-MF0 macrophage = test: Phagocytosis of fluorescent E. coli bioparticles by THP-1-MF0 macrophages; assay type: cell-based, human
Procedure: Mycoplasma-free THP-1 monocytes were grown in an RPMI 1640 (Gibco) medium containing 2 mM L-glutamine, 2.00 g/L sodium bicarbonate, and 2.00 g/L glucose. Then, 10% (v/v) heat-inactivated FBS (30 min at 56 °C) and Pen-Strep (100 U/mL to 100 μg/mL) were supplemented to the growth media.
Cell adherence was allowed for 1 h and 30 min at 37 °C/5% CO2. Cells were then treated for 30 min with controls and phagocytosis effectors for testing (vehicle, LXs, Rvs, or sLXms). Subsequently, media containing controls/effectors were vacuum-aspirated and replaced with a solution containing fluorescently prelabeled E. coli-derived bioparticles and cells were incubated in the dark for 2 h at 37 °C/5% CO2 to allow particle ingestion by monocytes/macrophages. After that, media containing bioparticles were vacuum-aspirated and replaced with a solution containing trypan blue and cells were incubated for 1 min at room temperature to allow quenching of unbound particles to ensure specificity of the fluorescent signal, deriving only from ingested particles (not shown). After aspiration of Trypan, the fluorescence reading was immediately performed at the following conditions: end point; reading from the bottom of the plate; Ex.480/Em.520 nm.

## CCC[C@@H](O)c1nc2ccccc2nc1/C=C/[C@@H](O)[C@@H](O)CCCC(=O)OC [(R)-7, Methyl (5S,6R,E)-5,6-Dihydroxy-8-(3-((R)-1-hydroxybutyl)quinoxalin-2-yl)oct-7-enoate]
THP-1 LUCIA monocytes [1]
  IC50: 100 pM
  Safety Index TC50/IC50: 20
THP-1 LUCIA monocytes [2]; LDH-associated level of cytotoxicity (high / moderate / low)
  Intrinsic Toxicity Level: Low-Mod.
THP-1 LUCIA monocytes [2]; absence of LPS, 24 h, controls Dex 1 μM, 2 1 pM, 5 1 pM
  intrinsic LDH release versus vehicle / spontaneous cell release: lower than the vehicle
THP-1 LUCIA monocytes [2]
  Intrinsic Toxicity TC50 (pM): 2,000 pM
NF-κB
  Rel. Slope: 0.55
  Potency Rel. Pot.: 0.015
  Efficacy Rel. Eff.: 1.21
  (Single component) Rel. Score: Rel. Pot.: -2 (x < 0.1)
  (Single component) Rel. Score: Rel. Sl.: -1 (0.01 < x < 1)
  (Aggregate) Rel. PD Score: -2
NF-κB; LPS 50 ng/mL, 24 h
  IC50: 4000 pM
  IC50 (range in words): “nM” range
NF-κB; 1 pM–1 μM
  reduction of LPS-induced NF-κB-driven luciferase activity: 30–35%

## CCCCC[C@H](O)c1nc2ccccc2nc1/C=C/[C@H]1OC(C)(C)O[C@H]1CCCC(=O)OC [(S)-17, Methyl 4-((4S,5R)-5-((E)-2-(3-((S)-1-Hydroxyhexyl)quinoxalin-2-yl)vinyl)-2,2-dimethyl-1,3-dioxolan-4-yl)butanoate]
THP-1 LUCIA monocytes [1]
  IC50: 3 pM
  Safety Index TC50/IC50: 33
THP-1 LUCIA monocytes [2]
  Intrinsic Toxicity TC50 (pM): 100 pM
NF-κB
  Rel. Slope: 0
  Potency Rel. Pot.: 24
  Efficacy Rel. Eff.: 0.79
  (Single component) Rel. Score: Rel. Pot.: 2 (x ≥ 5)
  (Single component) Rel. Score: Rel. Sl.: -4 (x = 0)
  (Aggregate) Rel. PD Score: -3
NF-κB; LPS 50 ng/mL, 24 h
  IC50: 3 pM
NF-κB; 1 pM–1 μM
  reduction of LPS-induced NF-κB-driven luciferase activity: least effective
NF-κB; maximal % inhibition of LPS (50 ng/mL)-stimulated NF-κB luciferase activity, 30 min pretreatment, 24 h, 1 pM–1 μM
  Imax (%): 19 ± 3%
NF-κB; slope of concentration–response curve
  Slope HS (Hill–Slope): 0

## COc1ccc2cc([C@H](C)C(=O)O)ccc2c1 [Naproxen, reference compound]
C57bl/6 mice; 4h
  % relative to carageenan-induced level: 118%
C57bl/6 mice; 8h
  % relative to carageenan-induced level: 40%
C57bl/6 mice; 24h
  % relative to carageenan-induced level: 55%
C57bl/6 mice; 48h
  % reduction relative to carageenan-induced level: 60%
  % relative to carageenan-induced level: 160%
C57bl/6 mice; 72h
  % reduction relative to carageenan-induced level: 450%
  % relative to carageenan-induced level: 550%
C57bl/6 mice; (R)-6, (R)-17 2 μg/kg ip, Naproxen 50 mg/kg po
  effect on inflammatory response (paw swelling), in words: inflammation persisted after 72 h
C57bl/6 mice; Time 4h, (R)-6, (R)-17 2 μg/kg ip, Naproxen 50 mg/kg po, 1% carrageenan
  Paw swelling Index: Mean: 0.08
C57bl/6 mice; Time 8h, (R)-6, (R)-17 2 μg/kg ip, Naproxen 50 mg/kg po
  Paw swelling Index: Mean: 0.16
C57bl/6 mice; Time 24h, (R)-6, (R)-17 2 μg/kg ip, Naproxen 50 mg/kg po
  Paw swelling Index: Mean: 0.48
C57bl/6 mice; Time 48h, (R)-6, (R)-17 2 μg/kg ip, Naproxen 50 mg/kg po
  Paw swelling Index: Mean: 0.65
C57bl/6 mice; Time 72h, (R)-6, (R)-17 2 μg/kg ip, Naproxen 50 mg/kg po
  Paw swelling Index: Mean: 0.55

## CC[C@@H](O)/C=C/C=C\C[C@@H](O)/C=C/C=C/C=C\[C@@H](O)CCCC(=O)O [RvE1]
THP-1-MF0 macrophage; 30 min pretreatment, 2 h bioparticles, read-out: Potency EC50
  EC50: 1 pM
THP-1-MF0 macrophage; relative to LXA4 (1)
  (Aggregate) Rel. PD Score: 0
  Potency Rel. Pot.: 5000
  Single comp. score Rel Eff.: -2
  Single comp. score Rel. Pot.: 2 (x ≥ 5)
